{
  "source": "paper doi:10.1101/2021.12.13.472350v1",
  "about": "“An amphipathic and cationic antimicrobial peptide kills colistin resistant Gram-negative pathogens in vivo” (bioRxiv, 2021)",
  "key": {"E. coli ATCC 25922 [1]": {"tested_on": "E. coli ATCC 25922", "experiment": "Time kill experiments", "format": "cell-based", "settings": "1xMIC, exponentially growing cells, 5×10^5-1×10^6 CFU/ml, MHB-II; plateau, regrowth evident after 3 hours"}, "E. coli ATCC 25922 [2]": {"tested_on": "E. coli ATCC 25922", "experiment": "In vivo sepsis/peritonitis mouse infection model", "settings": "NMRI mice infected IP"}, "E. coli MG1655": {"tested_on": "E. coli MG1655", "experiment": "Macromolecular incorporation assay", "format": "cell-based", "settings": "10xMIC, high cell density (OD600 = 0.1, approximately 1×10^8 CFU/ml), AB minimal medium", "protocol": "Bacteria were grown in cation adjusted Müller-Hinton broth (MHB-II; Sigma-Aldrich) for MIC or Luria-Bertani (LB) broth at 37°C, supplemented with relevant antibiotics when required. For macromolecular incorporation measurements cells were grown in AB minimal medium ([65]) supplemented with 10 μg/ml thiamine and 0.2% glucose without Cas amino acids. Except for glucosamine incorporation where 0.2% glycerol was used as carbon source. Growth rate of the mcr-1 carrying BW25113 strain was determined in MHB-II on exponentially growing cells by measuring OD600 over time.\nMacromolecular synthesis was determined by incorporation of […], 3H-arginine or 3H-glucosamine into DNA, RNA, proteins and cell wall respectively, as described previously ([66]). Briefly, 500 µl samples of exponentially growing MG1655 cells were incubated with 0.375 µCi of the relevant precursor for 2 minutes (uridine), 4 minutes (thymidine and arginine), and 20 minutes (glucosamine). Reactions were stopped by adding 5 ml of ice-cold 5% TCA containing 0.1 M NaCl. Samples were filtered (ADVANTEC®, 25mm, lot no: 80302708) washed twice and dried overnight in scintillation vials (PV1AS, MERIDIAN, BIOTECHNOLOGIES Ltd) before counting on a HINDEX 300SL in 5 ml of scintillation fluid (Scintillation fluid, ULTIMA GOLD™, Perkin Elmer, Inc. LOT No.: 77-18151)."}, "E. coli ATCC25922": {"tested_on": "E. coli ATCC25922", "experiment": "Live/Dead staining and phase contrast microscopy", "format": "cell-based", "settings": "5xMIC, first 30 min of treatment, OD600 = 0.1", "protocol": "Exponentially growing E. coli ATCC25922 were treated for 30 min with either colistin (5xMIC) or ChIP (5xMIC) at OD600 = 0.1. An untreated culture was used as a control. 20 ml of treated or untreated culture was concentrated by centrifugation at 5,000 × g for 10 minutes, washed and re-suspended in 10 ml 0.9% NaCl. All samples were incubated at room temperature for 1 hour, mixing every 15 minutes, before washing twice with 10 ml 0.9% NaCl. After washing, the samples were re-suspended in 5 ml 0.9% NaCl, except for ChIP treated samples that were suspended in 1 ml 0.9% NaCl. Sample staining was performed according to the manufacturers instruction (LIVE/DEAD(tm) BacLight(tm) Bacterial Viability Kit, for microscopy & quantitative assays), and incubated for 15 minutes in the dark. 5 μl of the bacterial suspension was placed on an agar pad and analyzed by fluorescence microscopy using an AxioImager Z1 microscope (Carl Zeiss MicroImaging, Inc), with a × 100 objective and a Hamamatsu ORCA-ER C4742-80-12AG camera."}, "[3]": {"tested_on": "Klebsiella pneumoniae ATCC 13883", "settings": "ATCC 13883, reference strain; MHB-II, 37°C, ~5×10^5 CFU/ml, triplicate"}, "[4]": {"tested_on": "Klebsiella pneumoniae ATCC 700603", "settings": "ATCC 700603, SHV-18, mucoid; MHB-II, 37°C, ~5×10^5 CFU/ml, triplicate"}, "[5]": {"tested_on": "Acinetobacter baumannii ATCC 19606", "settings": "ATCC 19606, reference strain; MHB-II, 37°C, ~5×10^5 CFU/ml, triplicate"}, "P. aeruginosa B3-CFI": {"tested_on": "P. aeruginosa B3-CFI", "settings": "clinical isolate, colistin resistant, MHB-II, 37°C, ~5×10^5 CFU/ml, triplicate"}, "HeLa cells": {"tested_on": "HeLa cells", "settings": "ChIP concentrations of 40 µg/ml and above, 24 hours, DMEM without serum, Trypan Blue, triplicate", "description": "HeLa cells were cultured in Dulbecco’s Modified Eagles Medium (DMEM) (Sigma) supplemented with 10% fetal calf serum (Sigma) and 2 mM glutamine at 37°C in a humid incubator with 5% CO2. Cell survival after 24 hours with various amounts of ChIP in DMEM without serum was determined by staining with Trypan Blue Stain (Gibco/Life Technologies). Experiments were performed in triplicate."}, "[6]": {"settings": "cited from earlier work"}, "[7]": {"settings": "5 mg/kg IP at 1 and 3 h post infection"}, "[8]": {"settings": "10 mg/kg IP at 1 and 3 h post infection"}},
  "data": [
    {"smiles": "CC[C@@H](C)[C@@H](NC(=O)[C@@H](CCCCN)NC(=O)[C@@H](CCCCN)NC(=O)[C@@H](Cc1ccccc1)NC(=O)[C@@H](CC(C)C)NC(=O)[C@@H](CCCCN)NC(=O)[C@H](N)CCCCN)C(=O)N[C@H](CC(C)C)C(=O)N[C@H](CCCNC(=N)N)C(=O)N[C@H](Cc1ccc(O)cc1)C(=O)N[C@H](CC(C)C)C(N)=O", "note": "[ChIP]", "values": [
      {"measurement": "reduction in viable cells", "setting": "E. coli ATCC 25922 [1]", "result": "3-4 log"},
      {"measurement": "peritoneal bacterial titers after treatment", "setting": "E. coli ATCC 25922 [2]; [7]", "result": "1-5×10^5 CFU/ml"},
      {"measurement": "reduction of peritoneal bacterial titers", "setting": "E. coli ATCC 25922 [2]; [7]", "result": 2, "unit": "logs"},
      {"measurement": "peritoneal CFUs after treatment", "setting": "E. coli ATCC 25922 [2]; [8]", "result": "1×10^3 CFU/ml"},
      {"measurement": "reduction of peritoneal CFUs", "setting": "E. coli ATCC 25922 [2]; [8]", "result": 4, "unit": "logs"},
      {"measurement": "incorporation of radioactive labelled precursors into DNA, RNA, protein and peptidoglycan", "setting": "E. coli MG1655", "result": "blocked incorporation"},
      {"measurement": "viability and lysis (SYTO9 / propidium iodide, phase contrast)", "setting": "E. coli ATCC25922", "result": "loss of viability, but without lysis"},
      {"measurement": "MIC", "setting": "[3]", "result": 4, "unit": "µg/mL"},
      {"measurement": "MIC", "setting": "[4]", "result": 8, "unit": "µg/mL"},
      {"measurement": "MIC", "setting": "[5]", "result": 8, "unit": "µg/mL"},
      {"measurement": "MIC", "setting": "P. aeruginosa B3-CFI", "result": 8, "unit": "µg/mL"},
      {"measurement": "HeLa cell survival", "setting": "HeLa cells", "result": "greatly reduced survival"},
      {"measurement": "hemolytic activity", "setting": "[6]", "result": "low hemolytic activity"}
    ]}
  ]
}
